These results are taken from PubChem BioAssay (NCI).

What is called TGI is the concentration giving total growth inhibition. Low readings indicate greater sensitivity of the cells, high ones lower sensitivity of the cells. For orientation: GI50 means the concentration that inhibits growth by half.

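How tested: cells in 96-well plates exposed to compound for 48 hours at five concentrations. GI50: concentration for 50% inhibition of growth. TGI: concentration producing complete growth inhibition.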

Some test systems named below: RXF 393 renal; EKVX NSCLC; SK-MEL-28 melanoma; PC-3 prostate; HS 578T breast; UACC-257 melanoma; NCI-H23 lung; RPMI-8226 leukemia; NCI-H522 lung; OVCAR-4 ovarian; HOP-62 NSCLC.
Holding throughout (experiment): DTP human tumour cell line panel, 48 h

For `COc1ccc(/[N+]([O-])=C/c2ccc(OC(=S)S)c(OC)c2)cc1`, the TGI with RXF 393 renal is 50.9 µM; with EKVX NSCLC, more than 100 µM; in the experiment on SK-MEL-28 melanoma, more than 100 µM; in the experiment on PC-3 prostate, more than 100 µM; in the experiment with HS 578T breast it was more than 100 µM; in the experiment on UACC-257 melanoma, more than 100 µM. For the same molecule, the TGI with NCI-H23 lung was more than 100 µM; in the experiment on RPMI-8226 leukemia, more than 100 µM; in the experiment on NCI-H522 lung, more than 100 µM; with OVCAR-4 ovarian, 49 µM; in the experiment on HOP-62 NSCLC, more than 100 µM.

Take `Nc1nc(Cl)cc(NCC2(CCO)CCC2)n1`: the TGI with RXF 393 renal, in the experiment on EKVX NSCLC, with SK-MEL-28 melanoma, in the experiment with PC-3 prostate, in the experiment with HS 578T breast and with UACC-257 melanoma was more than 100 µM throughout. The TGI in the experiment on NCI-H23 lung, with RPMI-8226 leukemia, with NCI-H522 lung, in the experiment with OVCAR-4 ovarian and with HOP-62 NSCLC was more than 100 µM each time.

On to `ClCc1nc2ccccc2[nH]1`, for which the TGI in the experiment on RXF 393 renal, with EKVX NSCLC, in the experiment with SK-MEL-28 melanoma, with PC-3 prostate, with HS 578T breast and in the experiment with UACC-257 melanoma was more than 100 µM in each case. The TGI with NCI-H23 lung, with RPMI-8226 leukemia, in the experiment with NCI-H522 lung, with OVCAR-4 ovarian and with HOP-62 NSCLC was more than 100 µM in each case.

As for `C[C@H](Nc1nc(N)c(N=O)c(=O)n1C)C(=O)O`, the TGI with RXF 393 renal, with EKVX NSCLC, with SK-MEL-28 melanoma, in the experiment with PC-3 prostate, in the experiment with HS 578T breast and in the experiment on UACC-257 melanoma was more than 10 µM in each case. The total growth inhibition concentration (TGI) with NCI-H23 lung, in the experiment with RPMI-8226 leukemia, with NCI-H522 lung, in the experiment with OVCAR-4 ovarian and in the experiment with HOP-62 NSCLC was more than 10 µM throughout.

On to `COC(=O)CCc1ccc(CCC(=O)OC)cc1`, for which the TGI with RXF 393 renal, in the experiment with EKVX NSCLC, in the experiment with SK-MEL-28 melanoma, in the experiment on PC-3 prostate, in the experiment with HS 578T breast and in the experiment on UACC-257 melanoma was more than 100 µM each time. Also, the TGI in the experiment on NCI-H23 lung, in the experiment on RPMI-8226 leukemia, in the experiment on NCI-H522 lung, with OVCAR-4 ovarian and with HOP-62 NSCLC was more than 100 µM throughout.

Turning to `C(=N\c1nc2cc3sc(/N=C/c4ccccc4)nc3cc2s1)/c1ccccc1`, the TGI is more than 100 µM in the experiment with RXF 393 renal; more than 100 µM in the experiment on EKVX NSCLC; more than 100 µM in the experiment on SK-MEL-28 melanoma; more than 100 µM with PC-3 prostate; 97.4 µM with HS 578T breast; more than 100 µM in the experiment on UACC-257 melanoma. The TGI in the experiment on NCI-H23 lung was more than 100 µM; in the experiment on RPMI-8226 leukemia, more than 100 µM; with NCI-H522 lung, 97.4 µM; in the experiment on OVCAR-4 ovarian, more than 100 µM; in the experiment on HOP-62 NSCLC it was more than 100 µM.

For the molecule `Cc1nc(-c2ccccc2)cn2c1nc1ccccc12`, the TGI in the experiment with RXF 393 renal was 55.5 µM; in the experiment on EKVX NSCLC, more than 59.6 µM; with SK-MEL-28 melanoma it was 72.8 µM; with PC-3 prostate, 69.5 µM; in the experiment with HS 578T breast, more than 87.5 µM; with UACC-257 melanoma it was more than 82.3 µM. Also, the TGI in the experiment on NCI-H23 lung is more than 77.7 µM; with RPMI-8226 leukemia, more than 100 µM; in the experiment on NCI-H522 lung it was more than 66.8 µM; in the experiment with OVCAR-4 ovarian, 65.4 µM; in the experiment on HOP-62 NSCLC it was 49.6 µM.

For the molecule `O=[N+]([O-])c1ncc(N(CCO)CCO)s1`, the TGI with RXF 393 renal was 33.4 µM; in the experiment with EKVX NSCLC it was more than 100 µM; with SK-MEL-28 melanoma, 33.2 µM; in the experiment with PC-3 prostate, more than 100 µM; in the experiment with HS 578T breast it was more than 100 µM; in the experiment with UACC-257 melanoma, 71.4 µM. Also, the TGI in the experiment with NCI-H23 lung was more than 100 µM; with RPMI-8226 leukemia it was 44.8 µM; with NCI-H522 lung, 35.6 µM; with OVCAR-4 ovarian it was more than 100 µM; with HOP-62 NSCLC, more than 100 µM.

On to `NC1=Nc2ccccc2Sc2nncn21`, for which the TGI in the experiment on RXF 393 renal, in the experiment with EKVX NSCLC, in the experiment on SK-MEL-28 melanoma, in the experiment on PC-3 prostate, with HS 578T breast and in the experiment on UACC-257 melanoma was more than 100 µM in each case. In addition, the TGI with NCI-H23 lung, in the experiment with RPMI-8226 leukemia, with NCI-H522 lung, with OVCAR-4 ovarian and with HOP-62 NSCLC was more than 100 µM in each case.

Turning to `O=S(=O)(O)c1ccc(N=Nc2ccccc2)cc1`, the TGI in the experiment on RXF 393 renal, in the experiment on EKVX NSCLC, with SK-MEL-28 melanoma, in the experiment on PC-3 prostate, in the experiment on HS 578T breast and with UACC-257 melanoma was more than 100 µM each time. For the same molecule, the TGI in the experiment on NCI-H23 lung, in the experiment with RPMI-8226 leukemia, in the experiment with NCI-H522 lung, in the experiment with OVCAR-4 ovarian and in the experiment on HOP-62 NSCLC was more than 100 µM each time.

For `FC1(F)ON2CCc3ccccc3C2[C@H]1c1ccccc1` (stereo not given in full), the total growth inhibition concentration (TGI) with RXF 393 renal, in the experiment with EKVX NSCLC, in the experiment on SK-MEL-28 melanoma, in the experiment on PC-3 prostate, with HS 578T breast and in the experiment on UACC-257 melanoma was more than 100 µM each time. Besides, the TGI in the experiment with NCI-H23 lung, in the experiment with RPMI-8226 leukemia, with NCI-H522 lung, in the experiment with OVCAR-4 ovarian and in the experiment on HOP-62 NSCLC was more than 100 µM throughout. Besides, the GI50 in the experiment on EKVX NSCLC is more than 100 µM; in the experiment on SK-MEL-28 melanoma, more than 100 µM; in the experiment with PC-3 prostate, more than 100 µM; with HS 578T breast it was 45.9 µM; in the experiment on UACC-257 melanoma it was more than 100 µM; in the experiment on NCI-H23 lung, more than 100 µM. In addition, the GI50 in the experiment with RPMI-8226 leukemia, in the experiment with NCI-H522 lung and in the experiment with OVCAR-4 ovarian was more than 100 µM in each case.
